Measured values taken from ChEMBL document CHEMBL2417425, “Design and synthesis of positional isomers of 5 and 6-bromo-1-[(phenyl)sulfonyl]-2-[(4-nitrophenoxy)methyl]-1H-benzimidazoles as possible antimicrobial and antitubercular agents” (2013).
Converted amounts (≈) assume the structure as drawn.

Tested on: Mycobacterium tuberculosis
Experiment: Antimycobacterial activity against multidrug-resistant Mycobacterium tuberculosis assessed as growth inhibition at 0.3125 to 5 ug/mL by resazurin assay
Assay type: functional

SMILES	MIC
N#Cc1cccc(S(=O)(=O)n2c(COc3ccc([N+](=O)[O-])cc3)nc3cc(Br)ccc32)c1	> 50 µg/mL
Cc1c(F)cccc1S(=O)(=O)n1c(COc2ccc([N+](=O)[O-])cc2)nc2cc(Br)ccc21	> 50 µg/mL
O=[N+]([O-])c1ccc(OCc2nc3cc(Br)ccc3n2S(=O)(=O)c2ccccc2Cl)cc1	6.25 µg/mL (≈ 12 µM)
COc1ccc(S(=O)(=O)n2c(COc3ccc([N+](=O)[O-])cc3)nc3cc(Br)ccc32)c(OC)c1	> 50 µg/mL
Cc1cccc(S(=O)(=O)n2c(COc3ccc([N+](=O)[O-])cc3)nc3cc(Br)ccc32)c1	> 50 µg/mL
COc1ccc(OC)c(S(=O)(=O)n2c(COc3ccc([N+](=O)[O-])cc3)nc3ccc(Br)cc32)c1	25 µg/mL (≈ 45.6 µM)
O=[N+]([O-])c1ccc(OCc2nc3ccc(Br)cc3n2S(=O)(=O)c2cc(F)ccc2F)cc1	> 50 µg/mL
O=[N+]([O-])c1ccc(OCc2nc3ccc(Br)cc3n2S(=O)(=O)c2cc(Cl)ccc2Cl)cc1	> 50 µg/mL
O=[N+]([O-])c1ccc(OCc2nc3ccc(Br)cc3n2S(=O)(=O)c2ccccc2[N+](=O)[O-])cc1	> 50 µg/mL
N#Cc1cccc(S(=O)(=O)n2c(COc3ccc([N+](=O)[O-])cc3)nc3ccc(Br)cc32)c1	> 50 µg/mL
Cc1c(F)cccc1S(=O)(=O)n1c(COc2ccc([N+](=O)[O-])cc2)nc2ccc(Br)cc21	> 50 µg/mL
COc1ccc(S(=O)(=O)n2c(COc3ccc([N+](=O)[O-])cc3)nc3ccc(Br)cc32)c(OC)c1	2.5 µg/mL (≈ 4.56 µM)
Cc1cccc(S(=O)(=O)n2c(COc3ccc([N+](=O)[O-])cc3)nc3ccc(Br)cc32)c1	> 50 µg/mL
Nc1ccc(OCc2nc3cc(Br)ccc3[nH]2)cc1	25 µg/mL (≈ 78.6 µM)
COc1ccc(OC)c(S(=O)(=O)n2c(COc3ccc([N+](=O)[O-])cc3)nc3cc(Br)ccc32)c1	> 50 µg/mL
O=[N+]([O-])c1ccc(OCc2nc3cc(Br)ccc3n2S(=O)(=O)c2cc(F)ccc2F)cc1	6.25 µg/mL (≈ 11.9 µM)
O=[N+]([O-])c1ccc(OCc2nc3cc(Br)ccc3n2S(=O)(=O)c2ccc(Cl)cc2Cl)cc1	> 50 µg/mL
O=[N+]([O-])c1ccc(OCc2nc3cc(Br)ccc3n2S(=O)(=O)c2cc(Cl)ccc2Cl)cc1	> 50 µg/mL
O=[N+]([O-])c1ccc(OCc2nc3cc(Br)ccc3n2S(=O)(=O)c2ccccc2[N+](=O)[O-])cc1	6.25 µg/mL (≈ 11.7 µM)
NNC(=O)c1ccncc1 [ISONIAZID]	12.5 µg/mL (≈ 91.1 µM)
CO[C@H]1/C=C/O[C@@]2(C)Oc3c(C)c(O)c4c(O)c(c(/C=N/N5CCN(C)CC5)c(O)c4c3C2=O)NC(=O)/C(C)=C\C=C\[C@H](C)[C@H](O)[C@@H](C)[C@@H](O)[C@@H](C)[C@H](OC(C)=O)[C@@H]1C [RIFAMPIN]	25 µg/mL (≈ 30.4 µM)
